The values below come from ChEMBL document CHEMBL3886683, “Apoptosis signal-regulating kinase inhibitor” (2016).

One assay addresses T1, Cytochrome P450 1A1 (Homo sapiens, UniProt P04798).
T1 sequence (P04798 whole entry): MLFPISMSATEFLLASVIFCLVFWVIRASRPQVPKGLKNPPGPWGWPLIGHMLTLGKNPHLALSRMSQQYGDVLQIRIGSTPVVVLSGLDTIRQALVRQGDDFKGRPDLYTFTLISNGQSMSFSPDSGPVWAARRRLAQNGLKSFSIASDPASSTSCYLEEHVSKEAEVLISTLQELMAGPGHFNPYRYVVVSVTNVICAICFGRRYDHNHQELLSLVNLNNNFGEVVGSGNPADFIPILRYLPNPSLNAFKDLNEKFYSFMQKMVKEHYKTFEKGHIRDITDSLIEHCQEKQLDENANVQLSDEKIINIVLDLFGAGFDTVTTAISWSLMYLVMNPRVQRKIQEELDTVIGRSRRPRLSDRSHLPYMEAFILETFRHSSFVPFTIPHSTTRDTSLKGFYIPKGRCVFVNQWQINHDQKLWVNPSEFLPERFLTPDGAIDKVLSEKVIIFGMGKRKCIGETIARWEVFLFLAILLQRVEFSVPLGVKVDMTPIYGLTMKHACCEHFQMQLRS
Description: Inhibition Assay: Six test compound concentrations (0.1, 0.25, 1, 2.5, 10, 25 μM in DMSO; final DMSO concentration=0.3%) are incubated with human liver microsomes ([…]) and NADPH (1 mM) in the presence of the probe substrate ethoxyresorufin (0.5 μM) for 5 min at 37° C. The selective CYP1A inhibitor, alpha-naphthoflavone, is screened alongside the test compounds as a positive control.

In a further assay the target is Cytochrome P450 2C19 (Homo sapiens, UniProt P33261). Description: Inhibition Assay: Six test compound concentrations (0.1, 0.25, 1, 2.5, 10, 25 μM in DMSO; final DMSO concentration=[…]) are incubated with human liver microsomes (0.5 mg/mL) and NADPH (1 mM) in the presence of the probe substrate mephenytoin (25 μM) for 60 min at 37° C. The selective CYP2C19 inhibitor, tranylcypromine, is screened alongside the test compounds as a positive control. A general note: Liver microsomes are vesicles of endoplasmic reticulum, rich in cytochrome P450 enzymes.
Sequence of Cytochrome P450 2C19 (P33261 whole entry): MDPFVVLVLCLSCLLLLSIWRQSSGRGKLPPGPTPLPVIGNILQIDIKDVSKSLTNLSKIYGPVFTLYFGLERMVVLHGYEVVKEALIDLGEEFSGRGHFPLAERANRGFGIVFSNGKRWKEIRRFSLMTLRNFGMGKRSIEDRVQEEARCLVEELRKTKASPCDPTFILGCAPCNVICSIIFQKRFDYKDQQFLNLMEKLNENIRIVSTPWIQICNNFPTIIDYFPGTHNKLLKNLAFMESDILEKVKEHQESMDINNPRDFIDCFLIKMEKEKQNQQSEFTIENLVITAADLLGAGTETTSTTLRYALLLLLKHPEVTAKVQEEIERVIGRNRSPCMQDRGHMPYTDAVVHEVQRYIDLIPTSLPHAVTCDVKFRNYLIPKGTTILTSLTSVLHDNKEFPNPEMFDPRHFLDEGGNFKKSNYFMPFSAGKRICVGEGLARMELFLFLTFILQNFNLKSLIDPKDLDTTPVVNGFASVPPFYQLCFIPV

In the next assay the target is T2, Cytochrome P450 2B6 (Homo sapiens, UniProt P20813).
T2 sequence (P20813 whole entry): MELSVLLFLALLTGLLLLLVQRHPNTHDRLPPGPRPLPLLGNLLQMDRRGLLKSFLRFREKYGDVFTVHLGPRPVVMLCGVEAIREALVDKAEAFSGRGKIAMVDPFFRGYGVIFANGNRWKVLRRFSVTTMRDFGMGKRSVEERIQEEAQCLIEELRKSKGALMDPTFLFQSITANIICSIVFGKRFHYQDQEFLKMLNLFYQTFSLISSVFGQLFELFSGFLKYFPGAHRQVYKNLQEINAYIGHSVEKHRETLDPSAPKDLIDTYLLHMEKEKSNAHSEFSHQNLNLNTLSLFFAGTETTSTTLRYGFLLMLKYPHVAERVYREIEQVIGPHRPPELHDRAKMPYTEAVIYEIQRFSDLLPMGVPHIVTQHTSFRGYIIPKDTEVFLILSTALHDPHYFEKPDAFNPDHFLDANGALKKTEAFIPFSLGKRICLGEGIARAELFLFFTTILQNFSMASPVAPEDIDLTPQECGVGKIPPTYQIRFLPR
Description: Inhibition Assay: Six test compound concentrations (0.1, 0.25, 1, 2.5, 10, 25 μM in DMSO; final DMSO concentration=0.3%) are incubated with human liver microsomes (0.1 mg/mL) and NADPH (1 mM) in the presence of the probe substrate bupropion (110 μM) for 5 min at 37° C. The selective CYP2B6 inhibitor, ticlopidine, is screened alongside the test compounds as a positive control.

For a further assay, the target named is T3, Cytochrome P450 2C8 (Homo sapiens, UniProt P10632).
T3 sequence (P10632 whole entry): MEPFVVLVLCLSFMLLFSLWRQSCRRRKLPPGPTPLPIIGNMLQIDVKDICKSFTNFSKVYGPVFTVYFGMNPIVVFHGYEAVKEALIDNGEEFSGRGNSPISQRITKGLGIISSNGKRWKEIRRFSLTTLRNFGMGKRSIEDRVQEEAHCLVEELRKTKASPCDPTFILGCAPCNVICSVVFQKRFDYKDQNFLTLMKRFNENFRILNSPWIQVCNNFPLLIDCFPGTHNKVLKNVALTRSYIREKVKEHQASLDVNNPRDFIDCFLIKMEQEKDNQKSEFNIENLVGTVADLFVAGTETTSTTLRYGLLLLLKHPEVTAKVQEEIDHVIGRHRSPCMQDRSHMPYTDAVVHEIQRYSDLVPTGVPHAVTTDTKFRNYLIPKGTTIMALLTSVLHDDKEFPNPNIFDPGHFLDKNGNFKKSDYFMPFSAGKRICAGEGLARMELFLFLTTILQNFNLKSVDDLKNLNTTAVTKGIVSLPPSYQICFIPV
As to the kind of experiment: Inhibition Assay: Six test compound concentrations (0.1, 0.25, 1, 2.5, 10, 25 μM in DMSO; final DMSO concentration=0.3%) are incubated with human liver microsomes ([…]) and NADPH (1 mM) in the presence of the probe substrate paclitaxel (7.5 μM) for 30 min at 37° C. The selective CYP2C8 inhibitor, montelukast, is screened alongside the test compounds as a positive control.

For a further assay, the target named is Cytochrome P450 2C9 (Homo sapiens, UniProt P11712). Description: Inhibition Assay: Six test compound concentrations (0.1, 0.25, 1, 2.5, 10, 25 μM in DMSO; final DMSO concentration=[…]) are incubated with human liver microsomes (1 mg/mL) and NADPH (1 mM) in the presence of the probe substrate tolbutamide (120 μM) for 60 min at 37° C. The selective CYP2C9 inhibitor, sulphaphenazole, is screened alongside the test compounds as a positive control.
Sequence of Cytochrome P450 2C9 (P11712 whole entry): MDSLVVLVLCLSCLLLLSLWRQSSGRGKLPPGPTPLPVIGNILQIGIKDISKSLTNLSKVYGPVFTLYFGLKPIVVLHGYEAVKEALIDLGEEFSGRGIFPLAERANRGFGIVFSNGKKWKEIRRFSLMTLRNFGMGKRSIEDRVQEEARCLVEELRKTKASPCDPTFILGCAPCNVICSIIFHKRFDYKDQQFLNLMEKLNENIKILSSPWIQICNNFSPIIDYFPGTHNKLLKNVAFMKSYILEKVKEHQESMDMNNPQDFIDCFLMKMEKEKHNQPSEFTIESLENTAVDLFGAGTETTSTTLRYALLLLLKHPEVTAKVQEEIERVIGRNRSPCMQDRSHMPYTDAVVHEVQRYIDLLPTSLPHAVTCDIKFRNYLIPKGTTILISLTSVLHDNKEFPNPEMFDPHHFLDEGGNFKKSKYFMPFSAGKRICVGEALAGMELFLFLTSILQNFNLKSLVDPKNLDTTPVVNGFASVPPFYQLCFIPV

The target in assay [1] is T4, Cytochrome P450 3A4 (Homo sapiens, UniProt P08684). Description: Inhibition Assay: Six test compound concentrations (0.1, 0.25, 1, 2.5, 10, 25 μM in DMSO; final DMSO concentration=0.275%) are incubated with human liver microsomes (0.5 mg/mL) and NADPH (1 mM) in the presence of the probe substrate testosterone (50 μM) for 5 min at 37° C. The selective CYP3A4 inhibitor, ketoconazole, is screened alongside the test compounds as a positive control.
T4 sequence (P08684 whole entry): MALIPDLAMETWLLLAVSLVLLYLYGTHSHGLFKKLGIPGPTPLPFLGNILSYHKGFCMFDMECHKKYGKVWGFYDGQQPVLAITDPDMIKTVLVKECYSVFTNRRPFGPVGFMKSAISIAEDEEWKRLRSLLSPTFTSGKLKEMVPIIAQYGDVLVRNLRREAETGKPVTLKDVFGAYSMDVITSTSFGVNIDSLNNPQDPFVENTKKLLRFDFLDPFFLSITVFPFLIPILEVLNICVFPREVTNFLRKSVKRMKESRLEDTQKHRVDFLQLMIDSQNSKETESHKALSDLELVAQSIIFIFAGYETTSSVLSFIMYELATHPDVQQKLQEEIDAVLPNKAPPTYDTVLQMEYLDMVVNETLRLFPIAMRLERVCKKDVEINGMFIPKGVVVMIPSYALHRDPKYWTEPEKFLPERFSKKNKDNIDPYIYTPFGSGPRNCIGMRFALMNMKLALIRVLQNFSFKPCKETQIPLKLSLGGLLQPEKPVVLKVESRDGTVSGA

Assay [2] addresses T4, Cytochrome P450 3A4. As to the kind of experiment: Inhibition Assay: Six test compound concentrations (0.1, 0.25, 1, 2.5, 10, 25 μM in DMSO; final DMSO concentration=0.26%) are incubated with human liver microsomes (0.1 mg/mL) and NADPH (1 mM) in the presence of the probe substrate midazolam ([…]) for 5 min at 37° C. The selective CYP3A4 inhibitor, ketoconazole, is screened alongside the test compounds as a positive control.

pIC50: −log10 of the molar value.

As usually defined, the pIC50 is the negative decadic logarithm of the IC50, by convention in mol/L. `O=c1ccc2nc3ccc(O)cc3oc-2c1`: the pIC50 on Cytochrome P450 1A1 is less than 4.60.

`CCC1(c2ccc(O)cc2)NC(=O)N(C)C1=O` (configuration not stated): the pIC50 at Cytochrome P450 2C19 is less than 4.60.

As to `CC(NC(C)(C)CO)C(=O)c1cccc(Cl)c1` (configuration not stated), the pIC50 on Cytochrome P450 2B6 is 4.72.

Regarding `CC(=O)O[C@H]1C(=O)[C@@]2(C)[C@H]([C@H](OC(=O)c3ccccc3)[C@]3(O)C[C@H](OC(=O)[C@H](O)[C@@H](NC(=O)c4ccccc4)c4ccccc4)C(C)=C1C3(C)C)[C@]1(OC(C)=O)CO[C@@H]1[C@@H](O)[C@@H]2O`, on Cytochrome P450 2C8, the pIC50 was 4.67.

For `CCCCNC(=O)NS(=O)(=O)c1ccc(CO)cc1`, on Cytochrome P450 2C9, the pIC50 was less than 4.60.

Regarding `C[C@]12CC[C@H]3[C@@H](C[C@@H](O)C4=CC(=O)CC[C@@]43C)[C@@H]1CC[C@@H]2O` [6beta-hydroxytestosterone], the pIC50 at Cytochrome P450 3A4 [1] is 4.98.

Take `OCc1ncc2n1-c1ccc(Cl)cc1C(c1ccccc1F)=NC2` [ALPHA-HYDROXY-MIDAZOLAM]: on Cytochrome P450 3A4 [2], the pIC50 is 5.57.
